3 molecules from paper PMC5814837 (Pest Management Science, 2017) can be followed below.

The assay deals with mitochondrial succinate dehydrogenase (SDH) (Zymoseptoria tritici, UniProt F9X9V6+F9XH52+O42772, A84V). As to the kind of experiment: biochemical. To be noted: IC50.
For `Cc1cc(OC(C)C)ccc1C(=O)C(C)(C)NC(=O)c1sccc1C` [Isofetamid, N‐[1,1‐dimethyl‐2‐(4‐isopropoxy‐o‐tolyl)‐2‐oxoethyl]‐3‐methylthiophene‐2‐carboxamide], the half-maximal inhibitory concentration (IC50) (as a rule, the midpoint of a concentration-inhibition curve) is over 32 µM.
`O=C(NCCc1ncc(C(F)(F)F)cc1Cl)c1ccccc1C(F)(F)F` [Fluopyram, fluopyram]: 14.8 ± 1.32 µM corresponded to half-maximal inhibition (IC50).
The figure for `Cn1cc(C(=O)Nc2ccc(F)cc2-c2ccc(Cl)c(Cl)c2)c(C(F)F)n1` [Bixafen, bixafen] is 0.106 ± 0.017 µM.
